Measurements as given in patent publication EP0336356A2, “Derivatives of tryptophan as CCK antagonists” (ABBOTT LABORATORIES, priority 1988, dated 1989).

Assays:
CCK receptors [1] = experiment: Antagonism of CCK mediated behavioral effect in mice (reversal of CCK-induced inactivity); type: in vivo; details: minimally effective dose, ICV, coadministered with CCK₈ 3 nmol, male Swiss CD-1 mice, statistically significant reversal of CCK-induced inactivity
Excerpt: Male Swiss CD-1 mice (Charles River) (22-27 g) were provided with ample food (Purina Lab (show) and water until the time of their injection with the test compound.
ICV injections were given by a free-hand method similar to that previously described (Haley, and McCormick, Br. J. Pharmacol. Chemother. 12 12-15 (1957)). The animals were placed on a slightly elevated metal grid and restrained by the thumb and forefinger at the level of the shoulders, thus immobilizing their heads. Injections were made with a 30 gauge needle with a "stop" consisting of a piece of tygon tubing to limit penetration of the needle to about 4.5 mm below the surface of the skin. The needle was inserted perpendicular to the skull at a midline point equidistant from thje eye and an equal distance posterior from the level of the eyes such that the injection site and the two eyes form an equilateral triangle. The injection volme (5 ul) was expelled smoothly over a period of approximately 1 second. […]
For the behavioral observations, the mice were placed in clear plastic cages. Each cage measured 19 x 26 x 15 centimeters and contained a 60-tube polypropylene test tube rack (NALGENE #5970-0020) placed on end in the center of the cage to enhance exploratory activity. […] Differences among groups were analyzed by Newman-Kewels analysis and a probability level of p<0.05 was accepted as significant. […]

CCK receptors [2] = biological target: T1, CCK receptors (Cavia porcellus, UniProt Q63931); experiment: Inhibition of CCK8-stimulated amylase release from guinea pig pancreatic acini; type: cell-based; details: reference concentration for CCK₈ 3x10⁻¹⁰M, 37°C, 30 min, read-out: IC₅₀ (nM) Inhibition of Amylase Release
T1 construct: cortex and pancreas were removed and rinsed with ice-cold saline; from tissue; host or cells: guinea pig pancreas membranes
T1 sequence (Q63931 1-430): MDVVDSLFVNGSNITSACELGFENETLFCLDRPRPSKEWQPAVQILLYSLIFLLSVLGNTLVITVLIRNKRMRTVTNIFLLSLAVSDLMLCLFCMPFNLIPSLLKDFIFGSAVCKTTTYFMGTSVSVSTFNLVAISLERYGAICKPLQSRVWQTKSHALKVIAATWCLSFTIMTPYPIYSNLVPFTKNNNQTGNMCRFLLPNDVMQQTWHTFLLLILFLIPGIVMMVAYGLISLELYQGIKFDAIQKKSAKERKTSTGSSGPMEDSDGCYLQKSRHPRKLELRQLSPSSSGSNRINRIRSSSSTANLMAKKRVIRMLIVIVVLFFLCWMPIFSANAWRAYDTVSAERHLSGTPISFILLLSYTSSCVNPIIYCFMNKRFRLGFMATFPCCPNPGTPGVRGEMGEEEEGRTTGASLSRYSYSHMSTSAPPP
Experimental: This assay was performed using the modified protocol of Lin et al., J. Pharmacol Exp. Ther. 236, 729-734, 1986. Guinea pig acini were prepared by the method of Bruzzone et al. (Biochem. J. 226, 621-624, 1985) as follows. Pancreas was dissected out and connective tissues and blood vessels were removed. […] The composition of the KRH buffer was: HEPES, 12.5 mM: NaCl, 118 mM; […] CaCl₂, 1 mM; KH₂PO₄, 1.2 mM; MgSO₄, 1.2 mM; NaHCO₃, 5 mM; glucose, 10 mM, pH 7.4. The buffer was supplemented with 1% MEM vitamins, 1% MEM amino acids and 0.001% aprotinin. The tube was shaken by hand until the suspension appeared homogeneous, usually 5 to 6 min. 5 mL of the KRH, without collagenase and with 0.1% BSA, were added and the tube was centrifuged at 50 x g for 35 sec. The supernatant was discarded and 6 mL of the KRH were added to the cell pellet. […] This wash procedure was repeated once. The cell pellet from the last centrifugation step was then resuspended in 15 mL of KRH containing 0.1% BSA. The contents were filtered through a dual nylon mesh, size 275 and 75 um. The filtrate, containing the acini, were centrifuged at 50 x g for 3 min. The acini were then resuspended in 5 mL of KRH-BSA buffer for 30 min at 37°C, under 100% O₂, with a change of fresh buffer at 15 min. After the 30 min incubation time, the acini were resuspended in 100 volumes of KRH-BSA buffer, containing 3 uM phosphoramidon and 100 µM bestatin. […] The final assay volume was 500 uL. Tubes were vortexed and placed in a 37°C waterbath, under 100% O₂, for 30 min. Afterward, tubes were centrifuged at 10,000 g for 1 min. Amylase activity in the supernatant and the cell pellet were separately determined after appropriate dilutions in 0.1% Triton X-100, 10 mM NaH₂PO₄, pH 7.4 by Abbott Amylase A-gent test using the Abbott Bichromatic Analyzer 200. […]

CCK receptors [3] = biological target: T1, CCK receptors; experiment: [125I]BH-CCK8 radioligand binding, guinea pig pancreatic membranes; details: 37°C for 30 min, read-out: IC₅₀ (nM) [¹²⁵I]-BH-CCK₈ Pancreas
CCK receptors [4] = biological target: T2, CCK receptors (Cavia porcellus, UniProt H0VZC5); experiment: [125I]BH-CCK8 radioligand binding, guinea pig cerebral cortical membranes; details: 30°C for 150 min, read-out: IC₅₀ (nM) [¹²⁵I]-BH-CCK₈ Cortex
T2 construct: cortex and pancreas were removed and rinsed with ice-cold saline; from tissue; host or cells: guinea pig cerebral cortex membranes
T2 sequence (H0VZC5 1-426): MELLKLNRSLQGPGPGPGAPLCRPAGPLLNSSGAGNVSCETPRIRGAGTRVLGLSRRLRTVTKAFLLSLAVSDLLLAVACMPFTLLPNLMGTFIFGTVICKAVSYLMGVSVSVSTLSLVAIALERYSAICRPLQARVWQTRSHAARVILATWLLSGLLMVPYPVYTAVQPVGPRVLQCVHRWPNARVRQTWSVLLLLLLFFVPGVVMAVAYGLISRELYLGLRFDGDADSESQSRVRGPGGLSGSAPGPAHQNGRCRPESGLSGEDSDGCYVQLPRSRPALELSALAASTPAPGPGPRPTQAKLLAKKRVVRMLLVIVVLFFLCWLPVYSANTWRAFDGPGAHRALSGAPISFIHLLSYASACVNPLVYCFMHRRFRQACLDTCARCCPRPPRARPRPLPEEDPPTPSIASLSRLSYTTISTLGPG

Row | SMILES | MED (CCK receptors [1]) [nmol] | IC50 (CCK receptors [2]) [nM] | IC50 (CCK receptors [3]) [nM] | IC50 (CCK receptors [4]) [nM]
1 | CCCCCN(CCCCC)C(=O)[C@@H](Cc1c[nH]c2ccccc12)NC(=O)c1cnc2ccccc2c1 [Example 21, N-(3′-Quinolylcarbonyl)-R-Tryptophan-di-n-pentylamide] | 0.3 | 42 | 14 | 15000
2 | CCOC(=O)CN(Cc1ccccc1)C(=O)[C@@H](Cc1c[nH]c2ccccc12)NC(=O)c1cnc2ccccc2c1 [Example 29, Ethyl N-(3′-Quinolylcarbonyl)-R-Tryptophyl-(N-benzyl)Glycinate] | – | < 10000 | 88 | 9200
3 | COC(=O)[C@H](NC(=O)C(Cc1c[nH]c2ccccc12)NC(=O)c1cnc2ccccc2c1)c1ccccc1 (stereo partly shown) [Example 31, Methyl N-(3′-Quinolylcarbonyl)-Tryptophyl-R-Phenylglycinate] | – | < 100000 | 300 | > 10000
4 | COC(=O)[C@@H](NC(=O)C(Cc1c[nH]c2ccccc12)NC(=O)c1cnc2ccccc2c1)c1ccccc1 (stereo partly shown) [Example 32, Methyl N-(3′-Quinolylcarbonyl)-Tryptophyl-S-Phenylglycinate] | – | < 30000 | 120 | > 10000
5 | CN(Cc1ccccc1)C(=O)C(Cc1c[nH]c2ccccc12)NC(=O)c1cnc2ccccc2c1 (stereo not shown) [Example 33, N-(3′-Quinolylcarbonyl)-Tryptophan-(N-methyl,N-benzyl)amide] | – | < 30000 | 530 | 10000
6 | C[C@H](NC(=O)[C@@H](Cc1c[nH]c2ccccc12)NC(=O)c1cnc2ccccc2c1)c1ccccc1 [Example 36, N-(3′-Quinolylcarbonyl)-R-Tryptophan-(1′,S-phenylethyl)amide] | – | < 10000 | 380 | > 10000
7 | C[C@@H](NC(=O)[C@@H](Cc1c[nH]c2ccccc12)NC(=O)c1cnc2ccccc2c1)c1ccccc1 [Example 39, N-(3′-Quinolylcarbonyl)-R-Tryptophan-(1′,R-phenylethyl)amide] | – | < 10000 | 110 | > 10000
8 | O=C(NC(Cc1c[nH]c2ccccc12)C(=O)N1CCC2CCCCC2C1)c1cnc2ccccc2c1 (stereo not shown) [Example 40, N-(3′-Quinolylcarbonyl)-Tryptophan-perhydroisoquinolylamide] | – | < 100000 | 1000 | 10000
9 | CCCCCN(CCCCC)C(=O)[C@H](Cc1c[nH]c2ccccc12)NC(=O)c1cnc2ccccc2c1 [Example 100, N-(3′-Quinolylcarbonyl)-S-Tryptophan-di-n-pentylamide] | – | < 100000 | 670 | 6300
